Laboratory results: article PMC6761801 (ACS Omega, 2019)
Ends that are not written are not given here.

Tests used:
Assay in all cases: MIC, broth microdilution
[1] = system: Bacillus subtilis (KCTC 3068); type: cell-based; conditions: B. subtilis, 2 × 10^6 CFU/mL
S. aureus (KCTC 1621) = type: cell-based, Staphylococcus aureus; conditions: 2 × 10^6 CFU/mL
[2] = system: Salmonella typhimurium (KCTC 1926); type: cell-based; conditions: S. typhimurium, 2 × 10^6 CFU/mL
[3] = system: Staphylococcus epidermidis (KCTC 1917); type: cell-based; conditions: S. epidermidis, 2 × 10^6 CFU/mL
[4] = system: Proteus vulgaris (KCTC 2433); type: cell-based; conditions: P. vulgaris, 2 × 10^6 CFU/mL
[5] = system: Enterococcus faecalis (KCTC 2011); type: cell-based; conditions: E. faecalis, 2 × 10^6 CFU/mL
E. coli (KCTC 1682) = type: cell-based, Escherichia coli; conditions: 2 × 10^6 CFU/mL
[6] = system: Pseudomonas aeruginosa (KCTC 1637); type: cell-based; conditions: P. aeruginosa, 2 × 10^6 CFU/mL
[7] = in the presence of 16 μM R9 (+R9)

Molecule	antimicrobial activity (MIC) ([1]; peptide alone (−R9))	antimicrobial activity (MIC) [1, 7]	antimicrobial activity (MIC) (S. aureus (KCTC 1621); [7])	antimicrobial activity (MIC) (S. aureus (KCTC 1621); peptide alone (−R9))	antimicrobial activity (MIC) [2, 7]	antimicrobial activity (MIC) ([2]; peptide alone (−R9))	antimicrobial activity (MIC) [3, 7] [µM]	antimicrobial activity (MIC) ([3]; peptide alone (−R9)) [µM]	antimicrobial activity (MIC) [4, 7]	antimicrobial activity (MIC) ([4]; peptide alone (−R9))	antimicrobial activity (MIC) [5, 7] [µM]	antimicrobial activity (MIC) ([5]; peptide alone (−R9)) [µM]	antimicrobial activity (MIC) (E. coli (KCTC 1682); [7]) [µM]	antimicrobial activity (MIC) (E. coli (KCTC 1682); peptide alone (−R9)) [µM]	antimicrobial activity (MIC) [6, 7]	antimicrobial activity (MIC) ([6]; peptide alone (−R9))
N=C(N)NCCC[C@H](NC(=O)[C@H](CCCNC(=N)N)NC(=O)[C@H](CCCNC(=N)N)NC(=O)[C@H](CCCNC(=N)N)NC(=O)[C@H](CCCNC(=N)N)NC(=O)[C@H](CCCNC(=N)N)NC(=O)[C@H](CCCNC(=N)N)NC(=O)[C@H](CCCNC(=N)N)NC(=O)[C@@H](N)CCCNC(=N)N)C(N)=O [R9]	> 128 µM	–	–	–	–	–	–	–	–	–	–	–	–	–	–	–
KWKKLLKKLLKLLKK-NH2 [M15]	8–16/8–16 μM	8–16/8–16 μM	8/8 μM	8/8 μM	32/32 μM	32/32 μM	16	16 to 32	32/32 μM	32/32 μM	8	16	16	16 to 32	32/32 μM	32/32 μM
RRRRRRRRRGGGGIGKWLHSAKKFGKAFVGEIMNS-NH2 [R9-magainin]	2 to 4 µM	–	–	8 µM	–	1 to 2 µM	–	4 to 8	–	4 to 8 µM	–	4	–	2 to 4	–	4 µM
